The record followed here is ChEMBL document CHEMBL4418493, “N-hydroxyformamide compounds and compositions comprising them for use as BMP1, TLL1 and/or TLL2 inhibitors” (2018).

Data set [1] is described as follows: Drug metabolism in heparinized pooled human plasma at pH 7.5 assessed as formation of (S)-2-(2-(carboxymethoxy)-4-(5-((((R)-2-((R)-1-(N-hydroxyformamido)propyl)heptanamido)methyl)carbamoyl)furan-2-yl)benzamido)succinic acid at 100 to 2000 ng/ml incubated up to 4 or 24 hrs by LC-MS/MS analysis. As to conditions: pH 7.5, 24 h. The data set is classed as ADME, cell-free.

Data set [2] in a line: Reduction in PICP levels in human cardiac fibroblasts incubated for 24 to 48 hrs by ELISA. The data set is classed as functional.
Data set [3] is described as follows: Drug metabolism in heparinized pooled human plasma at pH 7.5 assessed as formation of (3-ethoxy-5-(5-((((R)-2-((R)-1-(N-hydroxyformamido)propyl)heptanamido)methyl)carbamoyl) furan-2-yl)phenyl)phosphonic acid at 100 to 2000 ng/ml incubated up to 4 or 24 hrs by LC-MS/MS analysis. Type of data set: ADME, cell-free. As to conditions: pH 7.5, 24 h.

Where only a bound is given, the exact number is not on record here.

Turning to `CCCCC[C@@H](C(=O)NCNC(=O)c1ccc(-c2ccc(C(=O)N[C@@H](CC(=O)O)C(=O)O)c(OCC(=O)O)c2)o1)[C@@H](CC)N(C=O)OC(=O)c1c(C)cccc1F`, the Drug metabolism entry in data set [1] was “Metabolite_Detected”.
In turn, `CCCCC[C@@H](C(=O)NCNC(=O)c1ccc(-c2ccc(C(=O)N[C@@H](CC(=O)O)C(=O)O)c(OCC(=O)O)c2)o1)[C@@H](CC)N(C=O)OC(=O)N(C)C(=O)OC(C)(C)C` had an IC50 in data set [2] of under 3.98 µM. Moreover, the Drug metabolism entry in data set [1] is on record as “Metabolite_Detected”.
Regarding `CCCCC[C@@H](C(=O)NCNC(=O)c1ccc(-c2cc(OCC)cc(P(=O)(O)O)c2)o1)[C@@H](CC)N(C=O)OC(=O)NC(C)(C)c1ccccc1`, in data set [3], the Drug metabolism entry is given as “Metabolite_Detected”.
Still for that read-out and setting: to `CCCCC[C@@H](C(=O)NCNC(=O)c1ccc(-c2cc(OCC)cc(P(=O)(O)OCOC(=O)C(C)C)c2)o1)[C@@H](CC)N(O)C=O` belongs “Metabolite_Detected”; to `CCCCC[C@@H](C(=O)NCNC(=O)c1ccc(-c2cc(OCC)cc(P(=O)(O)O)c2)o1)[C@@H](CC)N(C=O)OC(=O)c1c(C)cccc1F`, “Metabolite_Detected”.
`CCCCC[C@@H](C(=O)NCNC(=O)c1ccc(-c2ccc(C(=O)N[C@@H](CC(=O)O)C(=O)O)c(OCC(=O)O)c2)o1)[C@@H](CC)N(C=O)OC(=O)C(c1ccccc1)c1ccccc1` showed an IC50 in data set [2] of under 3.98 µM. In addition, in data set [1], the Drug metabolism result is recorded as “Metabolite_Detected”.
Taken in the same sequence, the figures for `CCCCC[C@@H](C(=O)NCNC(=O)c1ccc(-c2ccc(C(=O)N[C@@H](CC(=O)O)C(=O)O)c(OCC(=O)O)c2)o1)[C@@H](CC)N(C=O)OC(=O)C1(C)CC1` were under 3.98 µM and “Metabolite_Detected”.
Turning to `CCCCC[C@@H](C(=O)NCNC(=O)c1ccc(-c2cc(OCC)cc(P(=O)(O)O)c2)o1)[C@@H](CC)N(C=O)OC(=O)c1ccc(N2CCOCC2)cc1`, the Drug metabolism result in data set [3] is given as “Metabolite_Detected”.
In turn, `CCCCC[C@@H](C(=O)NCNC(=O)c1ccc(-c2cc(OCC)cc(P(=O)(O)O)c2)o1)[C@@H](CC)N(C=O)OC(=O)C(CC)CC` had an IC50 in data set [2] of under 3.98 µM. Further, the Drug metabolism entry in data set [3] is “Metabolite_Detected”.
The compound `CCCCC[C@@H](C(=O)NCNC(=O)c1ccc(-c2ccc(C(=O)N[C@@H](CC(=O)O)C(=O)O)c(OCC(=O)O)c2)o1)[C@@H](CC)N(C=O)OC(=O)c1c(C)ccnc1C` gave an IC50 in data set [2] of under 3.98 µM. The Drug metabolism entry in data set [1] was “Metabolite_Detected”.
Regarding `CCCCC[C@@H](C(=O)NCNC(=O)c1ccc(-c2ccc(C(=O)N[C@@H](CC(=O)O)C(=O)O)c(OCC(=O)O)c2)o1)[C@@H](CC)N(C=O)OC(=O)C(CCC)CCC`, the half-inhibitory concentration (IC50) in data set [2] was under 3.98 µM. Further, the Drug metabolism entry in data set [1] was “Metabolite_Detected”.
With `CCCCC[C@@H](C(=O)NCNC(=O)c1ccc(-c2cc(OCC)cc(P(=O)(O)O)c2)o1)[C@@H](CC)N(C=O)OC(=O)c1ccccc1OC(=O)N(C)C`, in data set [3], the Drug metabolism result is given as “Metabolite_Detected”.
The compound `CCCCC[C@@H](C(=O)NCNC(=O)c1ccc(-c2cc(OCC)cc(P(=O)(O)O)c2)o1)[C@@H](CC)N(C=O)OC(=O)c1ccccc1O` gave an IC50 in data set [2] of under 3.98 µM. Also, the Drug metabolism entry in data set [3] is reported as “Metabolite_Detected”.
The compound `CCCCC[C@@H](C(=O)NCNC(=O)c1ccc(-c2ccc(C(=O)N[C@@H](CC(=O)O)C(=O)O)c(OCC(=O)O)c2)o1)[C@@H](CC)N(C=O)OC(=O)c1ccc(OC)cc1C(C)C` showed an IC50 in data set [2] of under 3.98 µM. The Drug metabolism entry in data set [1] is listed as “Metabolite_Detected”.
Regarding `CCCCC[C@@H](C(=O)NCNC(=O)c1ccc(-c2ccc(C(=O)N[C@@H](CC(=O)O)C(=O)O)c(OCC(=O)O)c2)o1)[C@@H](CC)N(C=O)OC(=O)c1ccc2ccccc2c1`, the IC50 in data set [2] is under 3.98 µM. For the same compound, the Drug metabolism result in data set [1] was “Metabolite_Detected”.
The like results for `CCCCC[C@@H](C(=O)NCNC(=O)c1ccc(-c2ccc(C(=O)N[C@@H](CC(=O)O)C(=O)O)c(OCC(=O)O)c2)o1)[C@@H](CC)N(C=O)OC(=O)c1ccc(OC)c(OC)c1` were, in that order, under 3.98 µM and “Metabolite_Detected”.
Consider `CCCCC[C@@H](C(=O)NCNC(=O)c1ccc(-c2ccc(C(=O)N[C@@H](CC(=O)O)C(=O)O)c(OCC(=O)O)c2)o1)[C@@H](CC)N(C=O)OC(=O)c1ccncc1C.N.N.N`, for which the IC50 in data set [2] is under 3.98 µM. Besides, the Drug metabolism entry in data set [1] is recorded as “Metabolite_Detected”.
With `CCCCC[C@@H](C(=O)NCNC(=O)c1ccc(-c2ccc(C(=O)N[C@@H](CC(=O)O)C(=O)O)c(OCC(=O)O)c2)o1)[C@@H](CC)N(C=O)OC(=O)Nc1ccccc1`, in data set [1], the Drug metabolism entry is on record as “Metabolite_Detected”.
In turn, `CCCCC[C@@H](C(=O)NCNC(=O)c1ccc(-c2cc(OCC)cc(P(=O)(O)O)c2)o1)[C@@H](CC)N(C=O)OC(=O)c1ccc(N2CCCC2=O)cc1.N.N` gave an IC50 in data set [2] of under 3.98 µM. In addition, the Drug metabolism result in data set [3] was “Metabolite_Detected”.
In turn, `CCCCC[C@@H](C(=O)NCNC(=O)c1ccc(-c2ccc(C(=O)N[C@@H](CC(=O)O)C(=O)O)c(OCC(=O)O)c2)o1)[C@@H](CC)N(C=O)OC(=O)c1ccc(OC)cc1OC.N.N.N` gave an IC50 in data set [2] of under 3.98 µM. Further, in data set [1], the Drug metabolism entry is listed as “Metabolite_Detected”.
Regarding `CCCCC[C@@H](C(=O)NCNC(=O)c1ccc(-c2cc(OCC)cc(P(=O)(O)O)c2)o1)[C@@H](CC)N(C=O)OC(=O)NC(C)(C)C`, the IC50 in data set [2] is under 3.98 µM. In addition, in data set [3], the Drug metabolism entry was “Metabolite_Detected”.
On to `CCCCC[C@@H](C(=O)NCNC(=O)c1ccc(-c2ccc(C(=O)N[C@@H](CC(=O)O)C(=O)O)c(OCC(=O)O)c2)o1)[C@@H](CC)N(C=O)OC(=O)c1ccccc1C(C)C`, for which the 50% inhibitory concentration (IC50) in data set [2] was under 3.98 µM. For the same compound, the Drug metabolism result in data set [1] is reported as “Metabolite_Detected”.
The like results for `CCCCC[C@@H](C(=O)NCNC(=O)c1ccc(-c2ccc(C(=O)N[C@@H](CC(=O)O)C(=O)O)c(OCC(=O)O)c2)o1)[C@@H](CC)N(C=O)OC(=O)NC(C)C` were, in that order, under 3.98 µM and “Metabolite_Detected”.
The like results for `CCCCC[C@@H](C(=O)NCNC(=O)c1ccc(-c2ccc(C(=O)N[C@@H](CC(=O)O)C(=O)O)c(OCC(=O)O)c2)o1)[C@@H](CC)N(C=O)OC(=O)c1c(C)cccc1OC` were, in that order, under 3.98 µM and “Metabolite_Detected”.
For `CCCCCCCCC(=O)ON(C=O)[C@H](CC)[C@@H](CCCCC)C(=O)NCNC(=O)c1ccc(-c2cc(OCC)cc(P(=O)(O)O)c2)o1`, in data set [3], the Drug metabolism result is listed as “Metabolite_Detected”.
For `CCCCC[C@@H](C(=O)NCNC(=O)c1ccc(-c2ccc(C(=O)N[C@@H](CC(=O)O)C(=O)O)c(OCC(=O)O)c2)o1)[C@@H](CC)N(C=O)OC(=O)c1ccccc1N`, the IC50 in data set [2] is under 3.98 µM. The Drug metabolism result in data set [1] is recorded as “Metabolite_Detected”.
On to `CCCCC[C@@H](C(=O)NCNC(=O)c1ccc(-c2cc(OCC)cc(P(=O)(O)O)c2)o1)[C@@H](CC)N(C=O)OC(=O)c1ccc(F)cc1C(C)C`, for which the Drug metabolism result in data set [3] was “Metabolite_Detected”.
Take `CCCCC[C@@H](C(=O)NCNC(=O)c1ccc(-c2ccc(C(=O)N[C@@H](CC(=O)O)C(=O)O)c(OCC(=O)O)c2)o1)[C@@H](CC)N(C=O)OC(=O)c1ccc(F)cc1C(C)C`: the IC50 in data set [2] is under 3.98 µM. In addition, in data set [1], the Drug metabolism result is listed as “Metabolite_Detected”.
With `CCCCC[C@@H](C(=O)NCNC(=O)c1ccc(-c2cc(OCC)cc(P(=O)(O)OCc3oc(=O)oc3C)c2)o1)[C@@H](CC)N(O)C=O`, the Drug metabolism entry in data set [3] was “Metabolite_Detected”.
On the same count and under the same terms, next, `CCCCC[C@@H](C(=O)NCNC(=O)c1ccc(-c2cc(OCC)cc(P(=O)(O)O)c2)o1)[C@@H](CC)N(C=O)OC(=O)c1ccc(-n2cccc2)cc1.N.N`: “Metabolite_Detected”.
For the compound `CCCCC[C@@H](C(=O)NCNC(=O)c1ccc(-c2ccc(C(=O)N[C@@H](CC(=O)O)C(=O)O)c(OCC(=O)O)c2)o1)[C@@H](CC)N(C=O)OC(=O)c1ccccc1NC`, the 50% inhibitory concentration (IC50) in data set [2] is under 3.98 µM. The Drug metabolism result in data set [1] is on record as “Metabolite_Detected”.
`CCCCC[C@@H](C(=O)NCNC(=O)c1ccc(-c2ccc(C(=O)N[C@@H](CC(=O)O)C(=O)O)c(OCC(=O)O)c2)o1)[C@@H](CC)N(C=O)OC(=O)c1ccc(CN2CCOCC2)cc1`: the 50% inhibitory concentration (IC50) in data set [2] was under 3.98 µM. For the same compound, the Drug metabolism result in data set [1] is recorded as “Metabolite_Detected”.
For the compound `CCCCC[C@@H](C(=O)NCNC(=O)c1ccc(-c2cc(OCC)cc(P(=O)(OCOC(=O)C(C)C)OCOC(=O)C(C)C)c2)o1)[C@@H](CC)N(O)C=O`, the Drug metabolism result in data set [3] is on record as “Metabolite_Detected”.
Compound `CCCCC[C@@H](C(=O)NCNC(=O)c1ccc(-c2ccc(C(=O)N[C@@H](CC(=O)O)C(=O)O)c(OCC(=O)O)c2)o1)[C@@H](CC)N(C=O)OC(=O)c1ccc(CN2CCOCC2)cc1C` had an IC50 in data set [2] of under 3.98 µM. Also, in data set [1], the Drug metabolism result is listed as “Metabolite_Detected”.
The like results for `CCCCC[C@@H](C(=O)NCNC(=O)c1ccc(-c2ccc(C(=O)N[C@@H](CC(=O)O)C(=O)O)c(OCC(=O)O)c2)o1)[C@@H](CC)N(C=O)OC(=O)NC(C)(C)C` were, in that order, under 3.98 µM and “Metabolite_Detected”.
Turning to `CCCCC[C@@H](C(=O)NCNC(=O)c1ccc(-c2cc(OCC)cc(P(=O)(O)O)c2)o1)[C@@H](CC)N(C=O)OC(=O)c1cccc(N2CCCC2)c1.N.N`, the Drug metabolism result in data set [3] is given as “Metabolite_Detected”.
The compound `CCCCC[C@@H](C(=O)NCNC(=O)c1ccc(-c2ccc(C(=O)N[C@@H](CC(=O)O)C(=O)O)c(OCC(=O)O)c2)o1)[C@@H](CC)N(C=O)OC(=O)c1cccc2ccccc12` showed an IC50 in data set [2] of under 3.98 µM. In addition, the Drug metabolism result in data set [1] is reported as “Metabolite_Detected”.
Taken in the same sequence, the figures for `CCCCC[C@@H](C(=O)NCNC(=O)c1ccc(-c2ccc(C(=O)N[C@@H](CC(=O)O)C(=O)O)c(OCC(=O)O)c2)o1)[C@@H](CC)N(C=O)OC(=O)c1c(C)noc1C` were under 3.98 µM and “Metabolite_Detected”.
For `CCCCC[C@@H](C(=O)NCNC(=O)c1ccc(-c2cc(OCC)cc(P(=O)(O)O)c2)o1)[C@@H](CC)N(C=O)OC(=O)c1ccc(N2CCCC2)cc1.N.N`, in data set [2], the IC50 was under 3.98 µM. Further, the Drug metabolism entry in data set [3] is given as “Metabolite_Detected”.
